Article PMC11862924, “Phenylpyrazoles as Inhibitors of the m^6A RNA-Binding Protein YTHDF2” (JACS Au, 2025)
One block for each compound: values may come before it.

Experiments:
[1] = tested on: K562; test: CCK-8 proliferation assay, K562; assay type: cell-based; conditions: Homo sapiens, CCK-8 kit assay, triplicates, 72 h, read-out: Anti-proliferation activity against cancer cells (IC50), K562
Description: (§1) The JAR, K562, HCT116, and MOLM13 cells were seeded in 96-well plates (3000 cells/well). After being cultured overnight, compounds were added together with the DMSO treatment (0.1%) as a control. After 72 h, CCK-8 solution (Vazyme, A311) was added, and the cells were incubated at 37 °C for 4 h. The absorbance was measured at 450 nm using a plate reader (TECAN Spark).

[2] = target: T1, YTHDF2 (residues 383–553) (Homo sapiens, UniProt Q9Y5A9); test: Fluorescence polarization (FP) assay, YTHDF2–m6A RNA interaction; assay type: binding; conditions: 100 μM compound; YTHDF2 (residues 383–553, 20 nM), FAM-labeled m6A RNA probe 5 nM; average ± SD
T1 construct: A YTHDF2 YTH domain construct (residues 383–553) was subcloned to a pOPIN plasmid; made in house; host or cells: Escherichia coli BL21(DE3)
T1 sequence (Q9Y5A9 383-553): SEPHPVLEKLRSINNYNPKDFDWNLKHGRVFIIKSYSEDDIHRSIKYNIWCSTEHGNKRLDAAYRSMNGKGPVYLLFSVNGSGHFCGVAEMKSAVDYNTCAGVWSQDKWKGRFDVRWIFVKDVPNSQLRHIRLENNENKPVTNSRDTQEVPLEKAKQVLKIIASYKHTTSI
Description: The FP assay was performed in 384-well black plates (Corning no. 4514) with a total reaction volume of 15 μL. The final concentrations of protein (YTHDF2) and RNA were […], respectively, in a buffer containing 20 mM HEPES/KOH pH 7.5, 50 mM NaCl, 0.005% Tween 20, and 1 mM GSH (DTT). Compounds were incubated with protein, added FAM-m^6A RNA probe ([…](m6)ACUGUG) (purchased from IDT), and incubated at 4 °C for 30 min. The fluorescence polarization was measured using a plate reader (TECAN Spark) under an excitation wavelength of 485 nm and an emission wavelength of 535 nm with a bandwidth of 20 nm. […] The data were determined using GraphPad Prism 9.

[3] = tested on: JAR; test: CCK-8 proliferation assay, JAR; assay type: cell-based; conditions: Homo sapiens; CCK-8 kit assay, triplicates, 72 h; read-out: Anti-proliferation activity against cancer cells (IC50), JAR
Description: as §1

[4] = tested on: HCT116; test: CCK-8 proliferation assay, HCT116; assay type: cell-based; conditions: Homo sapiens, HCT-116; CCK-8 kit assay, triplicates, 72 h; read-out: Anti-proliferation activity against cancer cells (IC50), HCT116
Description: as §1

[5] = target: T2, YTHDF2 (Homo sapiens, UniProt Q9Y5A9); parameters: method as in PMID 37236197; conditions: read-out: IC50, YTHDF2, AlphaScreen; cited from earlier work
T2 construct: A YTHDF2 YTH domain construct (residues 383–553) was subcloned to a pOPIN plasmid; made in house; host or cells: Escherichia coli BL21(DE3)
T2 sequence (Q9Y5A9 383-553): T1 sequence (Q9Y5A9 383-553)

[6] = target: T2, YTHDF2; parameters: method as in PMID 36268123; conditions: read-out: EC50, YTHDF2, tryptophan quenching assay; cited from earlier work
[7] = target: T3, YTHDF1 (Homo sapiens, UniProt Q9BYJ9); parameters: method as in PMID 36268123; conditions: read-out: EC50, YTHDF1, tryptophan quenching assay; cited from earlier work
T3 construct: Plasmids of the YTH domain of YTHDF1 (residues 375–552); made in house; host or cells: Escherichia coli BL21(DE3); plasmid from the Zhou lab (Boston College)
T3 sequence (Q9BYJ9 375-552): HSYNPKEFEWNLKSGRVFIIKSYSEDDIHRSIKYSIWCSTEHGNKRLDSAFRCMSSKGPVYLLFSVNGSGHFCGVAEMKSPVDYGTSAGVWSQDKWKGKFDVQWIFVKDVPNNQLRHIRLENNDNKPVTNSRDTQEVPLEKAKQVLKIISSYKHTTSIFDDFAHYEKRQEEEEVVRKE

[8] = tested on: METTL3; parameters: method as in PMID 33902106; conditions: cited from earlier work

- IC50 [1]: 24.5 ± 3.7 µM
- inhibition at 100 µM [2]: 14.2%
- IC50 [4]: 5.8 ± 0.9 µM
Compound: N#C/C(=C\c1ccc(-c2cccc(O)c2)s1)C(N)=O [DC-Y13–27, reference compound]
- IC50 [3]: 33.3 ± 5.6 µM
- IC50 [5]: 21.8 µM

Compound: O=c1c2ccccc2[se]n1-c1ccccc1 [Ebselen]
- EC50 [6]: 1700 nM
- EC50 [7]: 1600 nM

Compound: O=C(NCc1ccc2cc(CNCC3CCC3)[nH]c2c1)c1cc(=O)n2ccccc2n1 [STC-15]
- inhibitory activity against METTL3 (in words) [8]: nanomolar inhibitory activity

Compound: STM2457
- inhibitory activity against METTL3 (in words) [8]: nanomolar inhibitory activity
